Reference: patent US20240209061A1, “FUSION PROTEINS AND USES THEREOF” (Pfizer Inc., priority 2020, published 2024)

Key:
[1] = tested on: human PBMCs (T cells); test: Co-stimulation of primary human T cells with CEFT peptide; format: cell-based
Experimental: Serial, 3-fold dilutions of CD80-K89D-D90K-T28V-T57V-Fc and CD80-WT-Fc were prepared in complete IMDM medium (10% FBS, 1% Pen/Strep). CEFT peptide (PM-CEFT, JPT Peptide Technologies) was reconstituted in the same medium to the final concentration of 1 μg/ml. Frozen human PBMCs were thawed following a standard protocol and 250,000 were seeded per well of flat bottom 96-wells plates. CEFT peptide and appropriate concentration of the CD80-Fc fusion proteins were added to the cell suspension. Plates were sealed with breathable plate sealers and incubated for 72 hours at 37° C. in a CO2 incubator. Six hours prior to cell harvest, culture supernatants were collected and stored at −20° C. until used for cytokine analysis by MSD (V-Plex pro-inflammatory panel human kit, Meso Scale Discovery). At the same time brefeldin A solution was added to the cells, to enable intracellular accumulation of cytokines for evaluation by flow cytometry. Upon harvest, cells were stained for surface (among others CD25) and intracellular markers (among others Ki-67 and IFNγ) following a standard flow cytometry staining protocol. Data was collected using BD LSR Fortessa and analyzed using FlowJo v10 software.

[2] = tested on: CD3+ T cells from PBMCs; test: Gene expression pattern in primary human T cells (Nanostring); format: cell-based; conditions: with anti-human CD3 antibody; 24 hour
Experimental: 96-well plates were coated overnight with 1 μg/ml of anti-human CD3 antibody (HIT3a clone, BioLegend). The following day, plates were washed 2× with PBS and blocked for 1 hour with 200 μl of complete IMDM (10% FBS, 1% Pen/Strep)/well. Upon removal of the blocking medium, plates were seeded with 250,000 PBMCs derived from three different donors and the following proteins: 1) 1.2 μg/ml CD80-K89D-D90K-T28V-T57V-Fc (concentration associated with max IL-2 production in similar assays), 2) 12 μg/ml CD80-WT-Fc (concentration associated with max IL-2 production in similar assay), and 3) 5 μg/ml anti-human CD28 antibody.
After 24 hour incubation at 37° C. in a CO2 incubator, cells were harvested and stained with viability dye and anti-human CD3 (UCHT1 clone, Biolegend)). Viable CD3+ T cells were flow sorted and used for RNA extraction following Qiagen RNeasy protocol. Isolated RNA was used for a gene expression analysis utilizing Nanostring platform.

[3] = mouse, in vivo, iv, 0.1 mg/kg
Experimental: PK of CD80-Fc fusion proteins was also assessed in transgenic mice expressing the human neonatal Fc receptor (huFcRn) a-chain transgene under the control of its natural human promoter. Female mice were dosed intravenously with CD80-Fc fusion proteins at 0.1 mg/kg, and blood was collected at the timepoints indicated on the graph. Levels of CD80-Fc in mouse plasma were measured as described above.

[4] = tested on: EMT6 murine breast cancer cells; test: EMT6 breast cancer model, combination with talazoparib; format: in vivo, mouse; conditions: for Day 20 tumor volume: talazoparib 0.33 mg/kg daily where combined; for % tumor growth inhibition: Day 20, talazoparib 0.33 mg/kg where combined
Experimental: EMT6murine breast cancer cells (3×10^5) were orthotopically implanted in the mammary fat pad of female Balb/c mice. When tumors reached ˜90 mm^3 (day 5 after implantation), mice were randomized and dosed with PBS vehicle control, CD80-K89Q-D90Q-E23C-A26C-Fc (0.1 or 1 mg/kg), and/or 0.33 mg/kg talazoparib (Tala). CD80-D90Q-Fc was dosed on Days 0 and 3, talazoparib was dosed daily. Tumor volume was determined by caliper measurements obtained in 2 dimensions and calculated as width^2×length/2. Error bars are depicted as ±SEM

[5] = CEFT peptide, compared with CD80-WT-Fc

CD80-K89D-D90K-T28V-T57V-Fc: non-cysteine stabilized variant CD80-Fc fusion protein (K89D, D90K, T28V, T57V)
increase in CD25 expression of CD8+ T cells [1, 5]: ~30% | increase in Ki-67 staining (proliferative capacity) of CD8+ T cells [1, 5]: ~30% | IFNγ production relative to CD80-WT-Fc ([1]; MSD in cell supernatant): enhanced IFNγ production | % of IFNγ+CD8+ T cells relative to CD80-WT-Fc ([1]; flow cytometry): higher % of IFNγ+CD8+ T cells | IL7Rα- and TIGIT-encoding genes relative to anti-human CD3-only baseline, compared to CD80-WT-Fc [2]: greater decrease | expression level of OX-40-encoding gene relative to CD80-WT-Fc [2]: enhanced | expression of anti-apoptotic BCL-XL compared to CD80-WT-Fc [2]: enhanced expression | expression of pro-apoptotic CASP8 compared to CD80-WT-Fc [2]: decreased expression | gene expression of IL-2, IL-21 and Lymphotoxin Alpha (LTA) compared to CD80-WT-Fc [2]: enhanced gene expression | T1/2 [3]: 106 h

CD80-K89Q-D90Q-E23C-A26C-Fc: disulfide stabilized variant CD80-Fc fusion protein (K89Q, D90Q, E23C, A26C)
Day 20 tumor volume ([4]; CD80-Fc dose 0.1 mg/kg): 1149.2 mm^3 | Day 20 tumor volume ([4]; CD80-Fc dose 1 mg/kg): 637.5 mm^3 | % tumor growth inhibition ([4]; CD80-Fc dose 0.1 mg/kg): 43.1% | % tumor growth inhibition ([4]; CD80-Fc dose 1 mg/kg): 70.5%
